Laboratory results reported in ChEMBL document CHEMBL5137054, “Xyloketal B Reverses Nutritional Hepatic Steatosis, Steatohepatitis, and Liver Fibrosis through Activation of the PPARα/PGC1α Signaling Pathway” (J Nat Prod, 2022).
Activity calls are given as the source filed them.

What was measured:
Format in all cases: functional, organism-based
Conditions in all cases: time 6.0 weeks
Mus musculus [1] = test: Upregulation of Acaa1a gene transcriptional level in HFD-induced C57BL/6J mouse model of NAFL at 15 mg/kg/day, ip administered from week 7 to week 12 by qRT-PCR analysis
Mus musculus [2] = test: Upregulation of Cpt1b gene transcriptional level in HFD-induced C57BL/6J mouse model of NAFL at 15 mg/kg/day, ip administered from week 7 to week 12 by qRT-PCR analysis
Mus musculus [3] = test: Upregulation of Acox2 gene transcriptional level in HFD-induced C57BL/6J mouse model of NAFL at 15 mg/kg/day, ip administered from week 7 to week 12 by qRT-PCR analysis
Mus musculus [4] = test: Upregulation of Cyp4a14 gene transcriptional level in HFD-induced C57BL/6J mouse model of NAFL at 15 mg/kg/day, ip administered from week 7 to week 12 by qRT-PCR analysis
Mus musculus [5] = test: Upregulation of Cpt1c gene transcriptional level in HFD-induced C57BL/6J mouse model of NAFL at 15 mg/kg/day, ip administered from week 7 to week 12 by qRT-PCR analysis
Mus musculus [6] = test: Upregulation of Medium-chain specific acyl-CoA dehydrogenase gene transcriptional level in HFD-induced C57BL/6J mouse model of NAFL at 15 mg/kg/day, ip administered from week 7 to week 12 by qRT-PCR analysis
Mus musculus [7] = test: Upregulation of Cpt1a gene transcriptional level in HFD-induced C57BL/6J mouse model of NAFL at 15 mg/kg/day, ip administered from week 7 to week 12 by qRT-PCR analysis
Mus musculus [8] = test: Upregulation of peroxisomal bifunctional enzyme gene transcriptional level in HFD-induced C57BL/6J mouse model of NAFL at 15 mg/kg/day, ip administered from week 7 to week 12 by qRT-PCR analysis
Mus musculus [9] = test: Upregulation of Acox1 gene transcriptional level in HFD-induced C57BL/6J mouse model of NAFL at 15 mg/kg/day, ip administered from week 7 to week 12 by qRT-PCR analysis
Mus musculus [10] = test: Upregulation of long-chain specific acyl-CoA dehydrogenase gene transcriptional level in HFD-induced C57BL/6J mouse model of NAFL at 15 mg/kg/day, ip administered from week 7 to week 12 by qRT-PCR analysis
Mus musculus [11] = test: Upregulation of Cyp4a10 gene transcriptional level in HFD-induced C57BL/6J mouse model of NAFL at 15 mg/kg/day, ip administered from week 7 to week 12 by qRT-PCR analysis

Measured: Activity

CC(C)c1c(C(=O)Nc2ccccc2)c(-c2ccccc2)c(-c2ccc(F)cc2)n1CC[C@@H](O)C[C@@H](O)CC(=O)O
active: all assays above
